Earlier results, collected in patent US20080181937A1, “DOSAGE REGIMEN AND MEDICAMENT FOR GUARDING MEMORY AND BRAIN HEALTH AND FOR PREVENTING OR REDUCING RISK OF ONSET OF DEMENTIA BY ADMINISTRATION OF SPECIFIC VITAMINS AND SUPPLEMENTS (MEMOGUARD)” (priority 2007, published 2008).

Columns and labels:
[1] = test system: patients with marked memory loss at risk for developing Alzheimer's disease
[2] = test system: animal model of rheumatoid arthritis
amyloid = conditions: in vivo
[3] = test system: normal healthy subjects and the elderly; conditions: fish 2-3 times a week or supplements

COc1cc2c(cc1OC)C(=O)C(CC1CCN(Cc3ccccc3)CC1)C2 (centres unmarked) [Aricept]
prevention of the onset of Alzheimer's disease [1]: Neither of these drugs were shown to significantly prevent the onset

COc1cc(/C=C/C(=O)CC(=O)/C=C/c2ccc(O)c(OC)c2)ccc1O [Curcumin]
inflammation [2]: can reduce inflammation

CC/C=C\C/C=C\C/C=C\C/C=C\C/C=C\C/C=C\CCC(=O)O [DHA]
amount of amyloid in the brain (amyloid): can reduce the amount of amyloid in the brain
memory and attention ([3]; normal healthy subjects): increases memory and attention
risk of Alzheimer's ([3]; the elderly): significantly lowers the risk of Alzheimer's

COc1ccc2c3c1O[C@H]1C[C@@H](O)C=C[C@@]31CCN(C)C2 [Razadyne]
prevention of the onset of Alzheimer's disease [1]: Neither of these drugs were shown to significantly prevent the onset

CC(C)Cc1ccc(C(C)C(=O)O)cc1 (centres unmarked) [ibuprofen]
incidence of Alzheimer's disease (elderly patients; observational studies, individuals taking NSAID's): lower incidence of Alzheimer's disease

vitamin E
transfer to a nursing home (elderly patients; patients with cognitive impairment or dementia): can even delay transfer to a nursing home
